Laboratory results from patent US8513271B2, “Pyrimidine compounds as delta opioid receptor modulators” (Janssen Pharmaceutica, NV, priority 2009, dated 2013).
Read-outs that look alike come from different tables or passages of the source.

How the values were obtained:
delta opioid receptor [1] = biological target: T1, delta opioid receptor (Rattus norvegicus, UniProt P33533); experiment: Rat brain delta opioid receptor binding assay; conditions: rat forebrain
T1 construct: the forebrains were homogenized in Tris buffer in a Teflon®-glass homogenizer; from tissue; host or cells: forebrain of male Wistar rats, particulate (membrane) preparation
T1 sequence (P33533 whole entry): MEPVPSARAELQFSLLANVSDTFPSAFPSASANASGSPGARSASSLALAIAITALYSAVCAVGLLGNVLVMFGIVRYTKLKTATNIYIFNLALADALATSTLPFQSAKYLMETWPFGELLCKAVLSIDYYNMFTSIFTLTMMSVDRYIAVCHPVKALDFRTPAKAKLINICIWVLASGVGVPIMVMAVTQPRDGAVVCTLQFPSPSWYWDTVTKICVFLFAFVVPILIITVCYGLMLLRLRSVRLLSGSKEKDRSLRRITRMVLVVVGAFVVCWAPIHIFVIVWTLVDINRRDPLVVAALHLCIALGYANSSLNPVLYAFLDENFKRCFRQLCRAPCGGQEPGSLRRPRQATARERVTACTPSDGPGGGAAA

mu opioid receptor = biological target: T2, mu opioid receptor (Rattus norvegicus, UniProt P33535); experiment: Rat brain mu opioid receptor binding assay; conditions: rat forebrain, [3H]DAMGO ligand
T2 construct: the forebrains were homogenized in Tris buffer in a Teflon®-glass homogenizer; from tissue; host or cells: forebrain of male Wistar rats, particulate (membrane) preparation
T2 sequence (P33535 whole entry): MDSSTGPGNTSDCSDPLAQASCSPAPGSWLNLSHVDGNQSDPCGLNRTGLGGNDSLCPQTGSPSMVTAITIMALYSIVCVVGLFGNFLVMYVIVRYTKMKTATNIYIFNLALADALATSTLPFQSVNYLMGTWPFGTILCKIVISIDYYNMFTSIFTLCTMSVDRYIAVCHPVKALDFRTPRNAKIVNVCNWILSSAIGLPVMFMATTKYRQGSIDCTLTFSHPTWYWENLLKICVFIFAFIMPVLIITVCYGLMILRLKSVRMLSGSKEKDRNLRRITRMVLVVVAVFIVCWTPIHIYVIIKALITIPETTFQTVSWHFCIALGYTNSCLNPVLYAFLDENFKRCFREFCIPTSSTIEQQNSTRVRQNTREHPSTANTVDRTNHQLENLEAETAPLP

delta opioid receptor [2] = biological target: T3, delta opioid receptor (Mus musculus, UniProt P32300); experiment: [35S]GTPγS binding assay in NG108-15 cell membranes (delta opioid functional assay), 200 nM screen; format: biochemical; conditions: for EC50 / GTPγS δ-opioid receptor Rel Efficacy: NG108-15 cell membranes; for EC50: averages if tested more than once; for inhibition at 10 µM: read-out: GTPγS δ-opioid receptor % Inh @10 μM; for GTPγS δ-opioid receptor Rel Efficacy: relative efficacy from dose response
T3 construct: NG108-15 cell membranes were purchased from Applied Cell Sciences (Rockville, Md.); host or cells: NG108-15 cell membranes
T3 sequence (P32300 whole entry): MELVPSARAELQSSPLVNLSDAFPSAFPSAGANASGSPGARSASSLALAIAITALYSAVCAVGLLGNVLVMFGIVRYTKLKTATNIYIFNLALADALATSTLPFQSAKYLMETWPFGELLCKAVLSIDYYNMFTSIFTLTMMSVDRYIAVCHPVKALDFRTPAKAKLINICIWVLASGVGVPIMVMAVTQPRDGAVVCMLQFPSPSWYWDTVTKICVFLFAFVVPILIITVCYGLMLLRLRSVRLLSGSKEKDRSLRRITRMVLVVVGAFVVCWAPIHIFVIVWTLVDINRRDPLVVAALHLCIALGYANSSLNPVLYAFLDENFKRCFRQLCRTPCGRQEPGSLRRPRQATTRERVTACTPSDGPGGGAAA

[3] = δ-binding (Naltrindole ligand) Ki, [3H]naltrindole ligand
[4] = [3H]naltrindole ligand, read-out: δ-binding (Naltrindole ligand) Ki
[5] = read-out: GTPγS δ-opioid receptor EC50
[6] = GTPγS δ-opioid receptor EC50 (μM)
[7] = [3H]DPDPE ligand, read-out: δ-binding (DPDPE ligand) Ki

Question: `COc1ccc(Oc2nc(-c3cccc(S(C)(=O)=O)c3)ncc2NC[C@@H]2CCCN2)cc1` [Cpd 32] was tested. Which Ki (delta opioid receptor [1]; [3]) did it give?
Answer: Its Ki is 12.6 nM.

Question: And the Ki (mu opioid receptor; μ-binding Ki)?
Answer: Its Ki is 64.1 nM.

Question: What does the source list for `COc1ccc(Oc2nc(-c3cccc4ncccc34)ncc2NC[C@@H]2CCCN2)cc1` [Cpd 16]?
Answer: Ki (delta opioid receptor [1]; [3]): 14 nM; Ki (mu opioid receptor; read-out: μ-binding Ki): 1320 nM

Question: How did the Ki (delta opioid receptor [1]; [3]) turn out when `COc1ccc(Oc2nc(-c3cccc(C(N)=O)c3)ncc2NC[C@@H]2CCCN2)cc1` [Cpd 30] was run?
Answer: Its Ki is 3 nM.

Question: And the Ki (mu opioid receptor; read-out: μ-binding Ki)?
Answer: The Ki was 1090 nM.

Question: For `COc1ccc(Oc2nc(-c3cnc(O)nc3O)ncc2NC[C@@H]2CCCN2)cc1` [Cpd 27], which Ki (delta opioid receptor [1]; [4]) is on record?
Answer: Its Ki is 2570 nM.

Question: What about the Ki (mu opioid receptor; read-out: μ-binding Ki) of the same compound?
Answer: Its Ki is 15500 nM.

Question: With `COc1ccc(Oc2nc(-c3ccc(O)nc3)ncc2NC[C@@H]2CCCN2)cc1` [Cpd 74] as the compound, how does the Ki (delta opioid receptor [1]; [3]) read?
Answer: Its Ki is 26 nM.

Question: And the EC50 (delta opioid receptor [2]; [5])?
Answer: The EC50 was 0.856 µM.

Question: And the inhibition at 10 µM (delta opioid receptor [2])?
Answer: Its inhibition at 10 µM is 2.37%.

Question: What about the Ki (mu opioid receptor; read-out: μ-binding Ki) of the same compound?
Answer: The Ki was 1060 nM.

Question: Which results are given for `CCOc1ccc(Oc2nc(-c3cncc(C#N)c3)ncc2NC[C@@H]2CCCN2)cc1` [Cpd 104]?
Answer: Ki (delta opioid receptor [1]; [3]): 8 nM; EC50 (delta opioid receptor [2]; [6]): 0.018 µM; GTPγS δ-opioid receptor Rel Efficacy (delta opioid receptor [2]): 0.921; Ki (mu opioid receptor; μ-binding Ki): 190 nM

Question: How did the Ki (delta opioid receptor [1]; [4]) turn out when `COc1ccc(Oc2nc(-c3cc4ccccc4s3)ncc2NC[C@@H]2CCCN2)cc1` [Cpd 49] was run?
Answer: Its Ki is 103 nM.

Question: What about the Ki (mu opioid receptor; read-out: μ-binding Ki) of the same compound?
Answer: Its Ki is 3560 nM.

Question: With `COc1ccc(Oc2nc(-c3ccc4nonc4c3)ncc2NC[C@@H]2CCCN2)cc1` [Cpd 78] as the compound, how does the Ki (delta opioid receptor [1]; [3]) read?
Answer: The Ki was 75 nM.

Question: What about the Ki (mu opioid receptor; read-out: μ-binding Ki) of the same compound?
Answer: Its Ki is 1880 nM.

Question: How did the Ki (delta opioid receptor [1]; [3]) turn out when `CCN(CC)C(=O)c1cccc(-c2ncc(NC[C@@H]3CCCN3)c(Oc3ccc(OC)cc3)n2)c1` [Cpd 31] was run?
Answer: The Ki was 31 nM.

Question: And the Ki (mu opioid receptor; read-out: μ-binding Ki)?
Answer: Its Ki is 837 nM.

Question: How did the Ki (delta opioid receptor [1]; [4]) turn out when `COc1ccc(Oc2nc(-c3ccc(-c4ccccc4)cc3)ncc2NC[C@@H]2CCCN2)cc1` [Cpd 19] was run?
Answer: Its Ki is 201 nM.

Question: What about the Ki (mu opioid receptor; read-out: μ-binding Ki) of the same compound?
Answer: Its Ki is 8080 nM.

Question: Which Ki (delta opioid receptor [1]; [3]) does the source give for `COc1ccc(Oc2nc(-c3cccc4cccnc34)ncc2NC[C@@H]2CCCN2)cc1` [Cpd 17] here?
Answer: The Ki was 30 nM.

Question: What about the Ki (mu opioid receptor; read-out: μ-binding Ki) of the same compound?
Answer: Its Ki is 3080 nM.

Question: What does the source list for `N#Cc1cncc(-c2ncc(NC[C@@H]3CCCN3)c(Oc3ccc(OC(F)F)cc3)n2)c1` [Cpd 110]?
Answer: Ki (delta opioid receptor [1]; [3]): 33 nM; EC50 (delta opioid receptor [2]; [6]): 0.081 µM; GTPγS δ-opioid receptor Rel Efficacy (delta opioid receptor [2]): 0.986; Ki (mu opioid receptor; μ-binding Ki): 1070 nM

Question: How did the Ki (delta opioid receptor [1]; [4]) turn out when `CC(=O)Nc1ccc(Oc2nc(-c3cccnc3)ncc2NC[C@@H]2CCCN2)cc1` [Cpd 13] was run?
Answer: The Ki was 2 nM.

Question: And the Ki (mu opioid receptor; read-out: μ-binding Ki)?
Answer: Its Ki is 5570 nM.

Question: Which Ki (delta opioid receptor [1]; [3]) does the source give for `COc1ccc(Oc2nc(-c3cccc(NC(C)=O)c3)ncc2NC[C@@H]2CCCN2)cc1` [Cpd 42] here?
Answer: The Ki was 16 nM.

Question: And the Ki (mu opioid receptor; read-out: μ-binding Ki)?
Answer: The Ki was 1230 nM.

Question: Which results are given for `COc1ccc(Oc2nc(-c3ccc(OC)cc3)ncc2NC[C@@H]2CCCN2)cc1` [Cpd 1]?
Answer: Ki (delta opioid receptor [1]; [7]): 363 nM; Ki (mu opioid receptor; read-out: μ-binding Ki): 3230 nM

Question: Which Ki (delta opioid receptor [1]; [3]) does the source give for `c1ncc(-c2ncc(NC[C@@H]3CCCN3)c(Oc3ccc4ncsc4c3)n2)cn1` [Cpd 85] here?
Answer: The Ki was 2 nM.

Question: And the EC50 (delta opioid receptor [2]; [5])?
Answer: The EC50 was over 10 µM.

Question: What about the Ki (mu opioid receptor; read-out: μ-binding Ki) of the same compound?
Answer: Its Ki is over 10000 nM.

Question: How did the Ki (delta opioid receptor [1]; [4]) turn out when `COc1ccc(Oc2nc(-c3ccncc3)ncc2NC[C@@H]2CCCN2)cc1` [Cpd 7] was run?
Answer: Its Ki is 13 nM.

Question: And the EC50 (delta opioid receptor [2]; [5])?
Answer: Its EC50 is 0.436 µM.

Question: What about the inhibition at 10 µM (delta opioid receptor [2]) of the same compound?
Answer: Its inhibition at 10 µM is 17.1%.

Question: What about the “GTPγS δ-opioid receptor Rel Efficacy” value (delta opioid receptor [2]) of the same compound?
Answer: Its value is 0.912.

Question: And the Ki (mu opioid receptor; read-out: μ-binding Ki)?
Answer: Its Ki is 2170 nM.

Question: Which Ki (delta opioid receptor [1]; [4]) does the source give for `COc1ccc(Oc2nc(-c3cnc4[nH]ccc4c3)ncc2NC[C@@H]2CCCN2)cc1` [Cpd 77] here?
Answer: Its Ki is 154 nM.

Question: What about the Ki (mu opioid receptor; read-out: μ-binding Ki) of the same compound?
Answer: The Ki was 313 nM.

Question: Which Ki (delta opioid receptor [1]; [3]) does the source give for `COc1ccccc1Oc1nc(-c2cccnc2)ncc1NC[C@@H]1CCCN1` [Cpd 40] here?
Answer: The Ki was 93 nM.

Question: And the Ki (mu opioid receptor; read-out: μ-binding Ki)?
Answer: Its Ki is 7640 nM.

Question: How did the Ki (delta opioid receptor [1]; [3]) turn out when `COc1ccc(-c2ncc(NC[C@@H]3CCCN3)c(Oc3ccc(F)cc3)n2)cn1` [Cpd 37] was run?
Answer: The Ki was 10 nM.

Question: And the Ki (mu opioid receptor; read-out: μ-binding Ki)?
Answer: The Ki was over 10000 nM.

Question: For `COc1ccc(Oc2nc(-c3ccccc3OC)ncc2NC[C@@H]2CCCN2)cc1` [Cpd 4], which Ki (delta opioid receptor [1]; [7]) is on record?
Answer: Its Ki is 2220 nM.

Question: And the Ki (mu opioid receptor; read-out: μ-binding Ki)?
Answer: The Ki was over 10000 nM.

Question: With `COc1ccc(Oc2nc(-c3ccc4ccccc4c3)ncc2NC[C@@H]2CCCN2)cc1` [Cpd 6] as the compound, how does the Ki (delta opioid receptor [1]; [4]) read?
Answer: Its Ki is 116 nM.

Question: What about the Ki (mu opioid receptor; read-out: μ-binding Ki) of the same compound?
Answer: Its Ki is 9010 nM.

Question: With `COc1ccc(Oc2nc(-c3cc(F)cc(F)c3)ncc2NC[C@@H]2CCCN2)cc1` [Cpd 55] as the compound, how does the Ki (delta opioid receptor [1]; [3]) read?
Answer: The Ki was 21 nM.

Question: And the Ki (mu opioid receptor; read-out: μ-binding Ki)?
Answer: The Ki was 2050 nM.

Question: Which results are given for `COc1ccc(Oc2nc(-c3ccoc3)ncc2NC[C@@H]2CCCN2)cc1` [Cpd 10]?
Answer: Ki (delta opioid receptor [1]; [3]): 34 nM; Ki (mu opioid receptor; read-out: μ-binding Ki): 2000 nM

Question: With `COc1ccc(Oc2nc(-c3cnc(SC)nc3)ncc2NC[C@@H]2CCCN2)cc1` [Cpd 52] as the compound, how does the Ki (delta opioid receptor [1]; [3]) read?
Answer: Its Ki is 0.4 nM.

Question: What about the Ki (mu opioid receptor; read-out: μ-binding Ki) of the same compound?
Answer: Its Ki is 539 nM.

Question: For `COc1ccc(Oc2nc(-c3cccc(N)c3)ncc2NC[C@@H]2CCCN2)cc1` [Cpd 45], which Ki (delta opioid receptor [1]; [4]) is on record?
Answer: Its Ki is 11 nM.

Question: What about the Ki (mu opioid receptor; read-out: μ-binding Ki) of the same compound?
Answer: The Ki was 812 nM.

Question: For `COc1ccc(Oc2nc(-c3cn[nH]c3)ncc2NC[C@@H]2CCCN2)cc1` [Cpd 65], which Ki (delta opioid receptor [1]; [4]) is on record?
Answer: Its Ki is 3 nM.

Question: And the EC50 (delta opioid receptor [2]; [5])?
Answer: The EC50 was 0.339 µM.

Question: What about the “GTPγS δ-opioid receptor Rel Efficacy” value (delta opioid receptor [2]) of the same compound?
Answer: The value was 0.824.

Question: What about the Ki (mu opioid receptor; read-out: μ-binding Ki) of the same compound?
Answer: The Ki was 555 nM.
